Source: US9944583B2, “Methods for ameliorating and preventing central nervous system inflammation” (THE REGENTS OF THE UNIVERSITY OF CALIFORNIA, priority 2007, dated 2018)
“Also recorded” adds a separate entry of the source.

Assays:
PV-interneurons = test: parvalbumin and GAD67 immunoreactivity in PV-interneurons in primary neuronal cultures; details: co-exposure with ketamine 24 h; muscimol 10 μM, C3, apocynin 0.5 mM
NADPH oxidase = molecular target: T1, NADPH oxidase (Mus musculus, UniProt Q61093); test: EPR superoxide production by forebrain synaptosomes exposed to IL-6; format: biochemical; details: apocynin 0.4 mM applied 5 min before IL-6
T1 sequence (Q61093 1-570): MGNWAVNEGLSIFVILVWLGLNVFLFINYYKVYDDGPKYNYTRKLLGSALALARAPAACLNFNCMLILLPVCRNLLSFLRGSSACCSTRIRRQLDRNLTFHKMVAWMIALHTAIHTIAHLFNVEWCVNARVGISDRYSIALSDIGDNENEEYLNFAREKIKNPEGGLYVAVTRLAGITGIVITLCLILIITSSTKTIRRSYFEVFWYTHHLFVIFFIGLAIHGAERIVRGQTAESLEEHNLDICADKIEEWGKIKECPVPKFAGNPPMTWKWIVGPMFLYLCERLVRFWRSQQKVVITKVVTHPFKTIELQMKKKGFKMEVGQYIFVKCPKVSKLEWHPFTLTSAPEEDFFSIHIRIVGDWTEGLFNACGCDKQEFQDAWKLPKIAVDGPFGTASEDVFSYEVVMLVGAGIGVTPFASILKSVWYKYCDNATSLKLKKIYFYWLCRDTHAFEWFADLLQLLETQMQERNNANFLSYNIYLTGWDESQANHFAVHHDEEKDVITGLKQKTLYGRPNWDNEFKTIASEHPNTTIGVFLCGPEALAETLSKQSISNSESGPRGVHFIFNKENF
T1 sequence (Q61462 1-192 partner): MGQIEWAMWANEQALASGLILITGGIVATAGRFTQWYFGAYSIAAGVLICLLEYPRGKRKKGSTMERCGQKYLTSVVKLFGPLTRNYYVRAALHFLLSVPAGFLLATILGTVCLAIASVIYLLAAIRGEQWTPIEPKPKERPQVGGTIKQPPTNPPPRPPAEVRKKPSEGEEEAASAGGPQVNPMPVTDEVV

[1] = system: synaptosomal mitochondria; test: respiration of synaptosomal mitochondria (oximetry); details: apocynin 0-200 μM in synaptosomes
[2] = system: PV-interneurons in mouse prefrontal cortex; test: two-day ketamine treatment of mice: oxidized DHE, parvalbumin and GAD67 in prefrontal cortex; format: in vivo
Description: Animals and treatments. […] Male C57BL6 mice were obtained from Jackson Labs, Bar Harbor, Me., at 8-12 weeks and housed in our facility until 15 weeks when they were used for experiments. Ketamine (30 mg/kg) was applied intraperitoneally (IP) on two consecutive days at around 4 pm. DHE was applied 30 min after the last ketamine injection as described (19, 20). Briefly, two serial i.p. injections of freshly prepared dihydroethidium (27 mg/kg) are given at 30 minute intervals. Eighteen hours later, mice are anesthetized with inhaled halothane, and perfused intracardially with cold saline followed by 4% paraformaldehyde in PBS. The Nox inhibitor, apocynin (5 mg/kg/day) was given in the drinking water for a total of seven days, with an assumed intake of […] H2O/mouse/day, and ketamine was applied on the last two days. […] All animal studies were approved by the Animal Care Program at the University of California, San Diego, and are in accordance the PHS Guide for the Care and Use of Laboratory Animals, USDA Regulations, and the AVMA Panel on Euthanasia.
Immunohistochemistry: Brains were frontally sliced in a vibratome into 50 μm coronal sections encompassing the prefrontal cortex region (from Bregma 2.0 to 1.3). Sequential slices were processed for floating-section double immunohistochemistry for the detection of parvalbumin and GAD67. Antigen retrieval was performed by incubation of the slices in 1% sodium borohydride for 15 min as described (see reference 34, below), followed by washing in PBS and incubation in 10% normal goat serum in PBS for 16 h at 4° C. Primary antibodies (Calbindin: 1:5000: Calretinin: 1:2000; Parvalbumin: 1:3000, all rabbit polyclonals from Swant, Bellinzona, Switzerland. GAD67: 1:1000, from Chemicon-Millipore, Temecula, Calif.) were diluted in 2% normal goat serum in PBS and applied to the slices for 18 h at 4° C., after which slices were washed in PBS and incubated in a 1:1000 dilution of ALEXAFLUOR™ (Molecular Probes, Invitrogen, Carlsbad, Calif.) conjugated goat anti-rabbit (568) or goat anti-mouse (488) antibodies for 1 hr at room temperature (rt). Slices were washed in PBS and mounted sequentially in glass slides using […]™ (Vector Laboratories, Burlingame, Calif.), covered with a coverslip and allowed to dry for at least 24 h before confocal imaging.
Six slices were analyzed per animal.
Analysis of superoxide and/or hydrogen peroxide production by confocal imaging of in vivo dihydroethidium (DHE) oxidation. Mice will be injected intraperitoneally (i.p.) with dihydroethidium.

[3] = system: primary neuronal cultures; test: IL-6 exposure of primary neuronal cultures: oxidized DHE, Nox2, parvalbumin and GAD67; format: cell-based, mouse
Description: IL-6 increases superoxide in a Nox dependent manner, and reduces GAD67 and parvalbumin in primary cultures, as summarized by the data graphically presented in FIG. 18. […] As before, dihydroethidium (DHE) was applied for the last hour (DHE detects superoxide and hydrogen peroxide). After fixation, ICC for PV and GAD67 was carried out as described in methods and quantitative confocal microscopy was utilized for fluorescence analysis.
DHE (1 μg/ml) was added during the last hour of treatment. Images show the increase in Nox2 immunoreactivity and oxidized DHE upon treatment with IL-6. Bar-graphs show the results of quantification of oxidized DHE and Nox2 fluorescence expressed as % of control. […] Data are means±SEM. Baseline intensities: DHE=21±4.7; Nox2=18.7±2.6.
Fluorescence confocal images of representative fields depicting the expression of parvalbumin (PV) and GAD67 in PV-interneurons. Bar-graph represents the quantification of fluorescence expressed as % of control. […] Data are means±SEM. Baseline intensities: PV=135±32; GAD67=114±26.
IL-6 potentiates ketamine effects on PV-interneurons. […] After fixation, ICC for GAD67 and parvalbumin was carried out as described by Kinney (2006) J. Neurosci. […] N=3 cultures per condition.

[4] = apocynin 5 mg/kg/day 1 week in drinking water, C3 1.0 mg/kg/day one month by mini-pumps

COc1cc(C(C)=O)ccc1O [apocynin, 4-hydroxy-3-methoxyacetophenone]
effect on ketamine-mediated loss of parvalbumin and GAD67 immunoreactivity in PV-interneurons (PV-interneurons): prevented; also recorded: attenuated | effect on IL-6-induced increase in superoxide (EPR) (NADPH oxidase): completely blocked | mitochondrial respiration [1]: did not affect | effect on ketamine-induced increase in oxidized DHE in vivo [2, 4]: prevented | effect on ketamine-mediated loss of parvalbumin immunoreactivity in PV-interneurons in vivo [2, 4]: completely prevented | effect on ketamine-mediated decrease in parvalbumin and GAD67 immunoreactivity in PFC ([2]; apocynin in the drinking water): prevented | effect on IL-6 effects (DHE oxidation, GAD67 and parvalbumin) ([3]; apocynin 0.5 mM with IL-6 10 ng/ml, 24 h): prevented | effect on IL-6-induced superoxide production ([3]; apocynin added along with IL-6): eliminated | effect on Nox2 induction by IL-6 ([3]; apocynin added along with IL-6): not affected
